In patent US20110112100A1, “Hepatitis C Virus Inhibitors” (priority 2009, published 2011):
Counter-ions that a name gives are not always drawn. Like-named read-outs stand apart in the source and are kept apart here.

Tests used:
[1] = system: 1a-H77 replicon cells; assay: HCV 1a replicon inhibitory activity (Renilla luciferase); assay type: cell-based, hepatitis C virus; conditions: Hepatitis C virus, read-out: IC50 value (95% Confidence Intervals) pM Replicon 1A assay
Outline: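 Replicon cells in DMEM + 10% FCS incubated 48 hours at 37° C., 5% CO2 with 1-in-3 serial dilutions of compound prepared in DMSO. Replication read as Renilla luciferase luminescence after lysis. EC50 taken from log concentration-response curves.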

[2] = system: 1b (con1) replicon cells; assay: HCV 1b replicon inhibitory activity (luciferase, Britelite Plus); assay type: cell-based, hepatitis C virus; conditions: Hepatitis C virus, read-out: IC50 value (95% Confidence Intervals) pM Replicon 1B assay
Outline: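 1b (con1) luciferase replicon cells in DMEM + 10% FCS were exposed to 1-in-3 DMSO compound dilutions for 48 h at 37° C, 5% CO2. Luminescence was read 1-15 min after Britelite Plus addition; EC50 came from log concentration-response curves.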

[3] = Compound induced cytotoxicity in HCV replicon cell lines (WST-1 reagent); assay type: cell-based; conditions: human
Experimental: Test compounds were solubilised to 4 mM in 100% DMSO. Dilutions were made to the desired starting concentration in 100% DMSO and then 1 in 3 dilutions made, again in 100% DMSO. 0.5 μl of each sample was added to 384-well assay plates. White Lumitrac (Greiner) plates were used for the 1a and 1b replicon assays and black, clear bottomed (Greiner) plates were used for the WST-1 cytotoxity assay.
1b (con1) replicon cells were resuspended to a concentration of 1.4×10^5 cells/ml by addition of pre-warmed medium (DMEM+10% FCS). 50 μl of this suspension was added to each well of a 384-well assay plate (Black, clear bottomed, Greiner) already containing 0.5 μl of test compound.
All plates were covered with gas permeable seals and incubated at 37° C., 5% CO2 for 48 hours. After 48 hours, 5 μl WST-1 reagent (Roche, 11 644 807 001) was added to each well and the plate returned to the incubator for 3 hours. After this incubation period absorbance was read at 450 nm on an EnVision (Perkin Elmer) plate reader. The half maximal cytotoxic concentration (CC50) values were calculated for each compound by constructing log concentration-response curves.
All of the exemplified compounds have been screened in a cell proliferation assay (WST-1). A majority have […] in at least 2 independent experiments, the exceptions being the compounds of examples 1, 10, 12, 23, 25, 37, 47, 48, 49, 52, 56, 57, 58, 60, 67, 68, 69, 70, 71, 72, 73, 74, 79, 81 and 84 which have CC50 values>2 μM in 1 experiment, and example 20 where the CC50 is reported as >10 nM (in this instance the top concentration tested in the assay was 10 nM).

[4] = geometric mean, 95% confidence intervals in parentheses, 48 hours, medium with 10% FCS
[5] = 1b (con1) HCV replicon cells, WST-1, 48 hours, in 1 experiment

Molecule `COC(=O)N[C@H](C(=O)N1CCC[C@H]1c1ncc(-c2ccc(-c3ccc4cc(-c5cnc([C@@H]6CCCN6C(=O)[C@@H](NC(=O)OC)C(C)C)[nH]5)cnc4c3)nc2)[nH]1)C(C)C` [Example 10, Methyl {(2S)-1-[(2S)-2-{5-[6-(3-{2-[(2S)-1-{(2S)-2-[(methoxycarbonyl)amino]-3-methyl-butanoyl}pyrrolidin-2-yl]-1H-imidazol-5-yl}quinolin-7-yl)pyridin-3-yl]-1H-imidazol-2-yl}pyrrolidin-1-yl]-3-methyl-1-oxobutan-2-yl}carbamate] has an IC50 [1, 4] of 1320 pM, an IC50 [2, 4] of 49.4 pM and a CC50 at 48 h [3, 5] of over 2000 nM.
For `CC[C@H](NC(=O)OC)C(=O)N1CCC[C@H]1c1nc(-c2ccc(-c3cnc4cc(-c5cnc([C@@H]6CCCN6C(=O)[C@H](CC)NC(=O)OC)[nH]5)cnc4c3)cc2)c[nH]1` [Example 12, Methyl {(2S)-1-[(2S)-2-{4-[4-(7-{2-[(2S)-1-{(2S)-2-[(methoxycarbonyl)amino]butanoyl}pyrrolidin-2-yl]-1H-imidazol-5-yl}-1,5-naphthyridin-3-yl)phenyl]-1H-imidazol-2-yl}pyrrolidin-1-yl]-1-oxobutan-2-yl}carbamate], the IC50 [1, 4] was 3100 pM, the IC50 [2, 4] was 358 pM and the CC50 at 48 h [3, 5] was over 2000 nM.
`COC(=O)N[C@H](C(=O)N1CCC[C@H]1c1ncc(-c2ccc(-c3ncc4cc(-c5cnc([C@@H]6CCCN6C(=O)[C@@H](NC(=O)OC)C(C)C)[nH]5)ccc4n3)nc2)[nH]1)C(C)C` [Example 20, Methyl {(2S)-1-[(2S)-2-{5-[2-(5-{2-[(2S)-1-{(2S)-2-[(methoxycarbonyl)amino]-3-methylbutanoyl}pyrrolidin-2-yl]-1H-imidazol-5-yl}pyridin-2-yl)quinazolin-6-yl]-1H-imidazol-2-yl}pyrrolidin-1-yl]-3-methyl-1-oxobutan-2-yl}carbamate] showed an IC50 [1, 4] of 1720 pM, an IC50 [2, 4] of 127 pM and a CC50 at 48 h ([3]; 1b (con1) HCV replicon cells, WST-1, top concentration tested in the assay was 10 nM) of over 10 nM.
`COC(=O)N[C@H](C(=O)N1CCC[C@H]1c1nc(-c2ccc3nc(-c4ccc(-c5cnc([C@@H]6CCCN6C(=O)[C@@H](NC(=O)OC)C(C)C)[nH]5)cc4)cc(C#N)c3c2)c[nH]1)C(C)C` [Example 23, Methyl {(2S)-1-[(2S)-2-{5-[4-(4-cyano-6-{2-[(2S)-1-{(2S)-2-[(methoxycarbonyl)amino]-3-methylbutanoyl}pyrrolidin-2-yl]-1H-imidazol-4-yl}quinolin-2-yl)phenyl]-1H-imidazol-2-yl}pyrrolidin-1-yl]-3-methyl-1-oxobutan-2-yl}carbamate] showed an IC50 [1, 4] of 5450 pM, an IC50 [2, 4] of 58.4 pM and a CC50 at 48 h [3, 5] of over 2000 nM.
With `CC[C@H](NC(=O)OC)C(=O)N1CCC[C@H]1c1ncc(-c2ccc(-c3ccc4cc(-c5cnc([C@@H]6CCCN6C(=O)[C@H](CC)NC(=O)OC)[nH]5)ccc4c3)cc2)[nH]1` [Example 25, Methyl {(2S)-1-[(2S)-2-{5-[4-(6-{2-[(2S)-1-{(2S)-2-[(methoxycarbonyl)amino]butanoyl}pyrrolidin-2-yl]-1H-imidazol-5-yl}naphthalen-2-yl)phenyl]-1H-imidazol-2-yl}pyrrolidin-1-yl]-1-oxobutan-2-yl}carbamate] the IC50 [1, 4] was 88.8 pM, the IC50 [2, 4] was 10.8 pM and the CC50 at 48 h [3, 5] was over 2000 nM.
With `CCC[C@H](NC(C)=O)C(=O)N1CCC[C@H]1c1ncc(-c2ccc3nc(-c4ccc(-c5c[nH]c([C@@H]6CCCN6C(=O)[C@@H](NC(=O)OC)C(C)C)n5)cc4)cnc3c2)[nH]1` [Example 37, Methyl {(2S)-1-[(2S)-2-{4-{4-[6-(2-{(2S)-1-(N-acetyl-L-norvalyl)pyrrolidin-2-yl]-1H-imidazol-5-yl)quinoxalin-2-yl)phenyl]-1H-imidazol-2-yl}pyrrolidin-1-yl]-3-methyl-1-oxobutan-2-yl}carbamate trifluoroacetic acid salt] the IC50 ([1]; 48 h) was 284 pM, the IC50 ([2]; 48 h) was 42.9 pM and the CC50 at 48 h [3, 5] was over 2000 nM.
In the case of `COC(=O)N[C@H](C(=O)N1CCC[C@H]1c1nc(-c2ccc(-c3cnc4cc(-c5cnc([C@@H]6CCCN6C(=O)[C@H](Cc6ccccc6)NC(C)=O)[nH]5)ccc4n3)cc2)c[nH]1)C(C)C` [Example 47, Methyl {(2S)-1-[(2S)-2-{4-[4-(6-{2-[(2S)-1-(N-acetyl-L-phenylalanyl)pyrrolidin-2-yl]-1H-imidazol-5-yl}quinoxalin-2-yl)phenyl]-1H-imidazol-2-yl}pyrrolidin-1-yl]-3-methyl-1-oxobutan-2-yl}carbamate trifluoroacetic acid salt], the IC50 ([1]; 48 h) is reported as 6850 pM, the IC50 ([2]; 48 h) is reported as 52.8 pM and the CC50 at 48 h [3, 5] is reported as over 2000 nM.
`COC(=O)N[C@@H](Cc1ccccc1)C(=O)N1CCC[C@H]1c1ncc(-c2ccc3nc(-c4ccc(-c5c[nH]c([C@@H]6CCCN6C(=O)[C@@H](NC(=O)OC)C(C)C)n5)cc4)cnc3c2)[nH]1` [Example 49, Methyl {(2S)-1-[(2S)-2-{5-[2-(4-{2-[(2S)-1-{(2S)-2-[(methoxycarbonyl)amino]-3-methylbutanoyl}pyrrolidin-2-yl]-1H-imidazol-4-yl}phenyl)quinoxalin-6-yl]-1H-imidazol-2-yl}pyrrolidin-1-yl]-1-oxo-3-phenylpropan-2-yl}carbamate trifluoroacetic acid salt] gave an IC50 ([1]; 48 h) of 73 pM, an IC50 ([2]; 48 h) of 7.27 pM and a CC50 at 48 h [3, 5] of over 2000 nM.
For `CC[C@H](NC(=O)OC)C(=O)N1CCC[C@H]1c1ncc(-c2ccc3nc(-c4ccc(-c5c[nH]c([C@@H]6CCCN6C(=O)[C@@H](NC(=O)OC)C(C)C)n5)cc4)cnc3c2)[nH]1` [Example 52, Methyl {(2S)-1-[(2S)-2-{4-[4-(6-{2-[(2S)-1-{(2S)-2-[(methoxycarbonyl)amino]butanoyl}pyrrolidin-2-yl]-1H-imidazol-5-yl}quinoxalin-2-yl)phenyl]-1H-imidazol-2-yl}pyrrolidin-1-yl]-3-methyl-1-oxobutan-2-yl}carbamate trifluoroacetic acid salt], the IC50 ([1]; 48 h) was 22.1 pM, the IC50 ([2]; 48 h) was 16.6 pM and the CC50 at 48 h [3, 5] was over 2000 nM.
Work on `COC(=O)N[C@H](C(=O)N1CCC[C@H]1c1ncc(-c2ccc3nc(-c4ccc(-c5c[nH]c([C@@H]6CCCN6C(=O)[C@@H](NC(=O)OC)C(C)C)n5)cc4)cnc3c2)[nH]1)c1ccccc1` [Example 56, Methyl {(2S)-1-[(2S)-2-{4-[4-(6-(2-[(2S)-1-{(2S)-2-[(methoxycarbonyl)amino]-2-phenylacetyl}pyrrolidin-2-yl]-1H-imidazol-5-yl}quinoxalin-2-yl)phenyl]-1H-imidazol-2-yl}pyrrolidin-1-yl]-3-methyl-1-oxobutan-2-yl}carbamate trifluoroacetic acid salt] yielded an IC50 ([1]; 48 h) of 26.3 pM, an IC50 ([2]; 48 h) of 10.2 pM and a CC50 at 48 h [3, 5] of over 2000 nM.
With `CC[C@H](C)[C@H](NC(=O)OC)C(=O)N1CCC[C@H]1c1ncc(-c2ccc3nc(-c4ccc(-c5c[nH]c([C@@H]6CCCN6C(=O)[C@@H](NC(=O)OC)C(C)C)n5)cc4)cnc3c2)[nH]1` [Example 58, Methyl {(2S)-1-[(2S)-2-{4-[4-(6-{2-[(2S)-1-{(2S,3S)-2-[(methoxycarbonyl)amino]-3-methylpentanoyl}pyrrolidin-2-yl]-1H-imidazol-5-yl}quinoxalin-2-yl)phenyl]-1H-imidazol-2-yl}pyrrolidin-1-yl]-3-methyl-1-oxobutan-2-yl}carbamate trifluoroacetic acid salt] the IC50 ([1]; 48 h) was 6.71 pM, the IC50 ([2]; 48 h) was 5.07 pM and the CC50 at 48 h [3, 5] was over 2000 nM.
`COC(=O)N[C@H](C(=O)N1CCC[C@H]1c1nc(-c2ccc(-c3cnc4cc(-c5cnc([C@@H]6CCCN6C(=O)[C@@H](NC(=O)OC)[C@@H](C)O)[nH]5)ccc4n3)cc2)c[nH]1)C(C)C` [Example 60, Methyl {(2S)-1-[(2S)-2-{4-[4-(6-{2-[(2S)-1-{(2S,3R)-3-hydroxy-2-[(methoxycarbonyl)amino]butanoyl}pyrrolidin-2-yl]-1H-imidazol-5-yl}quinoxalin-2-yl)phenyl]-1H-imidazol-2-yl}pyrrolidin-1-yl]-3-methyl-1-oxobutan-2-yl}carbamate trifluoroacetic acid salt] showed an IC50 ([1]; 48 h) of 22.3 pM, an IC50 ([2]; 48 h) of 23.7 pM and a CC50 at 48 h ([3]; WST-1, 48 hours, in 1 experiment) of over 2000 nM.
